Reference: patent publication US8129546B2, “Derivatives for modulation of ion channels” (Vertex Pharmaceuticals Incorporated, priority 2005, dated 2012)

system: voltage-gated sodium ion channels (NaV); assay: Assays for detecting and measuring NaV inhibition (Table 3 activity); assay type: cell-based; conditions: NaV subtype and assay format not stated
Protocol: Compounds of the invention are useful as antagonists of voltage-gated sodium ion channels. Antagonist properties of test compounds were assessed as follows. Cells expressing the NaV of interest were placed into microtiter plates. After an incubation period, the cells were stained with fluorescent dyes sensitive to the transmembrane potential. The test compounds were added to the microtiter plate. The cells were stimulated with either a chemical or electrical means to evoke a NaV dependent membrane potential change from unblocked channels, which was detected and measured with trans-membrane potential-sensitive dyes. Antagonists were detected as a decreased membrane potential response to the stimulus. The optical membrane potential assay utilized voltage-sensitive FRET sensors described by Gonzalez and Tsien (See, Gonzalez, J. E. and R. Y. Tsien (1995) “Voltage sensing by fluorescence resonance energy transfer in single cells” Biophys J 69(4): 1272-80, and Gonzalez, J. E. and R. Y. Tsien (1997) “Improved indicators of cell membrane potential that use fluorescence resonance energy transfer” Chem Biol 4(4): 269-77) in combination with instrumentation for measuring fluorescence changes such as the Voltage/Ion Probe Reader (VIPR®) (See, Gonzalez, J. E., K. Oades, et al. (1999) “Cell-based assays and instrumentation for screening ion-channel targets” Drug Discov Today 4(9): 431-439).
VIPR® Optical Membrane Potential Assay Method with Chemical Stimulation
24 hours before the assay on VIPR, CHO cells […] expressing a NaV1.2 type voltage-gated NaV are seeded in 96-well poly-lysine coated plates at 60,000 cells per well. Other subtypes are performed in an analogous mode in a cell line expressing the NaV of interest. • 1) On the day of the assay, medium is aspirated and cells are washed twice with 225 μL of Bath Solution #2 (BS#2). • 2) A 15 μM CC2-DMPE solution is prepared by mixing 5 mM coumarin stock solution with 10% Pluronic 127 1:1 and then dissolving the mix in the appropriate volume of BS#2. • 3) After bath solution is removed from the 96-well plates, the cells are loaded with 80 μL of the CC2-DMPE solution. Plates are incubated in the dark for 30 minutes at room temperature. • 4) While the cells are being stained with coumarin, a […] oxonol solution in BS#2 is prepared. In addition to DiSBAC2(3), this solution should contain 0.75 mM ABSC1 and […] veratridine (prepared from 10 mM EtOH stock, Sigma #V-5754). • 5) After 30 minutes, CC2-DMPE is removed and the cells are washed twice with 225 μL of BS#2. As before, the residual volume should be 40 μL. • 6) Upon removing the bath, the cells are loaded with 80 μL of the DiSBAC2(3) solution, after which test compound, dissolved in DMSO, is added to achieve the desired test concentration to each well from the drug addition plate and mixed thoroughly. The volume in the well should be roughly 121 μL. The cells are then incubated for 20-30 minutes. • 7) Once the incubation is complete, the cells are ready to be assayed on VIPR® with a sodium addback protocol. 120 μL of Bath solution #1 is added to stimulate the NaV dependent depolarization. […] tetracaine was used as an antagonist positive control for block of the NaV channel. Analysis of VIPR® Data:
Data are analyzed and reported as normalized ratios of background-subtracted emission intensities measured in the 460 nm and 580 nm channels. Background intensities are then subtracted from each assay channel. Background intensities are obtained by measuring the emission intensities during the same time periods from identically treated assay wells in which there are no cells. The response as a function of time is then reported as the ratios obtained using the following formula: […]
The data is further reduced by calculating the initial (Ri) and final (Rf) ratios. These are the average ratio values during part or all of the pre-stimulation period, and during sample points during the stimulation period. […]

With CNS(=O)(=O)C1CCN(C(=O)C(C)n2ccc3ccccc32)CC1 (centres unmarked) [Compound 1] the Activity was “None”.

O=C(CCn1ccc2cc(Cl)ccc21)N1CCC(S(=O)(=O)Nc2ccccc2)CC1 [Compound 2, 1-[3-(5-chloro-1H-indol-1-yl)propanoyl]-N-phenyl-piperidine-4-sulfonamide] and O=C(CCn1ccc2cc(Cl)ccc21)N1CCC(S(=O)(=O)Nc2ccccc2)C1 (centres unmarked) [Compound 16] fall in the same range of IC50: 5 to 20 µM for the first, 5 to 20 µM for the second.

CC(C(=O)N1CCC(S(=O)(=O)Nc2ccccc2)CC1)n1ccc2ccccc21 (centres unmarked) [Compound 3, 1-[2-(1H-Indol-1-yl)propanoyl]-N-phenyl-piperidine-4-sulfonamide] and CC(C(=O)N1CCC(S(=O)(=O)Nc2ccccc2)C1)n1ccc2ccccc21 (centres unmarked) [Compound 12, 1-[2-(1H-Indol-1-yl)propanoyl]-N-phenyl-pyrrolidine-3-sulfonamide] fall in the same range of IC50: 5 to 20 µM for the first, 5 to 20 µM for the second.

O=C(COc1ccc(F)c(Cl)c1)N1CCC(S(=O)(=O)NCc2ccccc2)CC1 [Compound 4, N-Benzyl-1-[2-(3-chloro-4-fluoro-phenoxy)acetyl]-piperidine-4-sulfonamide] and O=C(COc1ccc(F)c(Cl)c1)N1CCC(S(=O)(=O)NCc2ccccc2)C1 (centres unmarked) [Compound 13, N-Benzyl-1-[2-(3-chloro-4-fluoro-phenoxy)acetyl]-pyrrolidine-3-sulfonamide] fall in the same range of IC50: 5 to 20 µM for the first, 5 to 20 µM for the second.

First: O=C(COc1ccnc2c(C(F)(F)F)cccc12)N1CCC(S(=O)(=O)NCc2ccccc2)CC1 [Compound 5, N-Benzyl-1-[2-[[8-(trifluoromethyl)-4-quinolyl]oxy]acetyl]-piperidine-4-sulfonamide]
Second: O=C(COc1ccnc2c(C(F)(F)F)cccc12)N1CCC(S(=O)(=O)NCc2ccccc2)C1 (centres unmarked) [Compound 14]
The IC50 of the first is higher: over 20 µM for the first, 5 to 20 µM for the second.

First: CN(C)S(=O)(=O)C1CCN(C(=O)CCn2ccc3cc(Cl)ccc32)CC1 [Compound 7, 1-[3-(5-Chloro-1H-indol-1-yl)propanoyl]-N,N-dimethyl-piperidine-4-sulfonamide]
Second: O=C(CCn1ccc2cc(Cl)ccc21)N1CCC(S(=O)(=O)N2CCCC2)C1 (centres unmarked) [Compound 10, 3-(5-Chloro-1H-indol-1-yl)-1-(3-pyrrolidin-1-ylsulfonylpyrrolidin-1-yl)-propan-1-one]
The IC50 of the first is higher: over 20 µM for the first, 5 to 20 µM for the second. The second is the more potent here.

O=C(COc1ccnc2c(C(F)(F)F)cccc12)N1CCC(S(=O)(=O)N2CCCC2)C1 (centres unmarked) [Compound 11, 1-(3-Pyrrolidin-1-ylsulfonylpyrrolidin-1-yl)-2-[[8-(trifluoromethyl)-4-quinoly]oxy]ethanone] and O=C(COc1ccnc2c(C(F)(F)F)cccc12)N1CCC(S(=O)(=O)N2CCCC2)CC1 [Compound 20] cannot be ordered by IC50: over 20 µM for the first, over 20 µM for the second.

First: O=C(COc1ccc(F)c(Cl)c1)N1CCC(S(=O)(=O)Nc2ccccc2)C1 (centres unmarked) [Compound 15]
Second: O=C(COc1ccc(F)c(Cl)c1)N1CCC(S(=O)(=O)N2CCCC2)C1 (centres unmarked) [Compound 18]
The IC50 of the first is lower: 5 to 20 µM for the first, over 20 µM for the second.

First: CC(C(=O)N1CCC(S(=O)(=O)NCc2ccccc2)C1)n1ccc2ccccc21 (centres unmarked) [Compound 17]
Second: CC(C(=O)N1CCC(S(=O)(=O)N2CCCC2)C1)n1ccc2ccccc21 (centres unmarked) [Compound 21]
The IC50 of the first is lower: 5 to 20 µM for the first, over 20 µM for the second.

First: O=C(CCn1ccc2cc(Cl)ccc21)N1CCC(S(=O)(=O)NCc2ccccc2)CC1 [Compound 19]
Second: CNS(=O)(=O)C1CCN(C(=O)COc2ccnc3c(C(F)(F)F)cccc23)CC1 [Compound 23]
The IC50 of the first is lower: 5 to 20 µM for the first, over 20 µM for the second. The first is the more potent here.

system: not given; assay: not given; conditions: neuropathic pain; cited from earlier work

In the case of NCC1(CC(=O)O)CCCCC1 [Gabapentin], the “share of patients in whom it works” value is listed as 60%.
